Results from patent US12194018B2, “Cannabinoid compositions” (SRE Wellness, Inc., priority 2016, dated 2025).

How the values were obtained:
[1] = in vivo; cited from earlier work
[2] = edible Cannabis products; depending on liver function; cited from earlier work
[3] = Emulsifying agents tested for emulsification of coconut oil and water (Example 2); format: physicochemical; conditions: coconut oils solid and liquid (MCT)
Description: Several experiments were run using several different emulsifiers and combinations of different coconut oils: solid and liquid (MCT). (Note: liquid MCT is coconut oil that has medium chain triglyceride).

Compound | Risk of lethal overdose [1] | Share of the THC able to be metabolized [2] | Effectiveness as emulsifying agent (emulsification of the oil and water) [3]
C=C(C)[C@@H]1CCC(C)=C[C@H]1c1c(O)cc(CCCCC)cc1O [CBD, cannabidiol] | no risk of lethal overdose | – | –
CCCCCc1cc(O)c2c(c1)OC(C)(C)[C@@H]1CCC(C)=C[C@@H]21 [THC, Δ^9-tetrahydrocannabinol] | no risk of lethal overdose | 2-6% | –
cyclodextrin | – | – | good results
